Biological target: T1, Short transient receptor potential channel 6 (Homo sapiens, UniProt Q9Y210)
T1 sequence (Q9Y210 whole entry): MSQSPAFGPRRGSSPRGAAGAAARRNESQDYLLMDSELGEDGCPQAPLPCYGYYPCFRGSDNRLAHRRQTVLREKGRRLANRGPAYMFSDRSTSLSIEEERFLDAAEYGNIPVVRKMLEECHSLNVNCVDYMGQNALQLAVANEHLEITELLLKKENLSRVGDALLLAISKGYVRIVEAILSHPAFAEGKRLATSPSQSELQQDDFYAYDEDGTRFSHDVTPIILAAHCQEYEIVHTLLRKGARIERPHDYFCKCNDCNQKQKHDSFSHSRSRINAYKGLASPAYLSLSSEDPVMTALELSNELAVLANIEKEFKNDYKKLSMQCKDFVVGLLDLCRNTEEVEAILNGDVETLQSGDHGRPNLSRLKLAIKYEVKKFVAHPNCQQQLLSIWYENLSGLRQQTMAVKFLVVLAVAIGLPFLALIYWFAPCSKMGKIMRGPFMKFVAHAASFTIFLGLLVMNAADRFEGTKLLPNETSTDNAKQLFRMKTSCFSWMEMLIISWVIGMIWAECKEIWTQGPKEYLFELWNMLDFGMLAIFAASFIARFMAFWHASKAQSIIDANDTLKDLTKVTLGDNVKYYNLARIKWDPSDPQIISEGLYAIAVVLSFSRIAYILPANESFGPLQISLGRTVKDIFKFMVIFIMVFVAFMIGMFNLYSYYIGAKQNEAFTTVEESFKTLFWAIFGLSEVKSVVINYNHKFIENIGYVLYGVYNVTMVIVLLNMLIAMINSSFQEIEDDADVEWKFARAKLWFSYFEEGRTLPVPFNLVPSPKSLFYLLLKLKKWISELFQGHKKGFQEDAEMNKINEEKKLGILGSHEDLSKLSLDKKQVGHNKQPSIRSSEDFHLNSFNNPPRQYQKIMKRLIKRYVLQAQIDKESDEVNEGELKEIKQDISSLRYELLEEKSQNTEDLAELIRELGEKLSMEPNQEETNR
Assay: High Throughput Screening Assay: This screening assay measures TRPC6 (transient receptor potential cation channel, subfamily C, member 6) ion channel activation via addition either of the commercially available DAG ligand analogue OAG (1-oleoyl-2-acetyl-sn-glycerol) or of the TRPC6 agonist 1-[1-(4,5,6,7,8-pentahydrocyclohepta[2,1-d]thiophen-2-ylcarbonyl)-4-piperidyl]-3-hydrobenzimidazol-2-one (GSK1702934A). The assay utilizes a FLIPR fluorescent calcium sensor 4-(6-Acetoxymethoxy-2,7-difluoro-3-oxo-9-xanthenyl)-4′-methyl-2,2′-(ethylenedioxy)dianiline-N,N,N′,N′-tetraacetic acid tetrakis(acetoxymethyl) ester (Fluo4/AM) […]. Changes (increases) in intracellular membrane calcium concentration potential as measured by the fluorescent signal increase during membrane depolarization provide a measurement of channel activity.The commercially available HEK293/TREx line (Invitrogen) was stably transfected with a TRPC6 construct and screened by conventional calcium imaging to find clones with TRPC6 expression following stimulation with 1 μg/ml tetracycline. These cells were maintained in the growth medium recommended by the manufacturer supplemented with 100 μg/ml hygromycin to promote retention of the TRPC6 construct. […]
Type: cell membranes

Structure (SMILES): CCOc1cc(C(=O)N2C3CCC2CC(c2ccc(N)nn2)C3)ncc1Oc1ccc(F)cc1 (stereo unspecified)
- IC50: 2100 nM
